Experimental data as given in patent US6518293B2, “Anti-HIV imidazolone derivatives” (Hoffmann-La Roche Inc., priority 2000, dated 2003).
pIC50: −log10 of the molar value.

Legend:
HIV-1 RT = HIV-1 RT (Human immunodeficiency virus type 1 group M subtype B, UniProt P04585); assay: HIV-1 Reverse Transcriptase Assay: Inhibitor IC50 Determination; assay type: biochemical; conditions: purified recombinant enzyme, poly(rA)/oligo(dT)16 template-primer
Description: Assay Method: HIV-1 Reverse Transcriptase Assay: Inhibitor IC50 Determination
HIV-1 RT assay was carried out in 96-well Millipore filtermat NOB50 plates using purified recombinant enzyme and a poly(rA)/oligo(dT)16 template-primer in a total volume of 50 μL. The assay constituents were 50 mM Tris/HCl, 50 mM NaCl, 1 mM EDTA, 6 mM MgCl2, 5 μM dTTP, 0.1 μCi [^3H] dTTP, 5 μg/ml poly (rA) pre annealed to 2.5 μg/ml oligo (dT)16 and a range of inhibitor concentrations in a final concentration of 10% DMSO. Reactions were initiated by adding 5 nM HIV-1 RT and after incubation at 37° C. for 30 min, they were stopped by the addition of 50 μl ice cold 20% TCA and allowed to precipitate at 4° C. for 30 min. The precipitates were collected by applying vacuum to the plate and sequentially washing with 2×200 μl of 10% TCA and 2×200 μl 70% ethanol. Finally the plates were dried and radioactivity counted in a Wallac Microbeta 1450 after the addition of 15 μl scintillation fluid per well. IC50's were calculated by plotting % inhibition versus log10 inhibitor concentrations.

[1] = test system: HXB2-strain of HIV in MT4 cells; assay: Antiviral assay: protection of HIV-infected MT4 cells from cell death (MTT); assay type: cell-based; conditions: Human immunodeficiency virus 1; MT4 cells infected with HXB2-strain of HIV, MTT viability
Description: Anti-HIV antiviral activity was assessed using an adaptation of the method of Pauwels et al. {Pauwels et al., 1988, J Virol Methods 20:309-321}. The method is based on the ability of compounds to protect HIV-infected T lymphoblastoid cells (MT4 cells) from cell-death mediated by the infection. The endpoint of the assay was calculated as the concentration of compound at which the cell viability of the culture was preserved by 50% (‘50% inhibitory concentration’, IC50). The cell viability of a culture was determined by the uptake of soluble, yellow 3-[4,5-dimethylthiazol-2-yl]-2,5-diphenyltetrazolium bromide (MTT) and its reduction to a purple insoluble formazan salt. After solubilization, spectrophotometric methods were employed to measure the amount of formazan product.
MT4 cells were prepared to be in logarithmic-phase growth and a total of 2×10^6 cells infected with the HXB2-strain of HIV at a multiplicity of 0.0001 infectious units of virus per cell in a total volume of between 200-500 microlitres. The cells were incubated with virus for one h at 37° C. before removal of virus. The cells are then washed in 0.01 M phosphate buffered saline, pH 7.2 before being resuspensed in culture medium for incubation in culture with serial dilutions of test compound. The culture medium used was RPMI 1640 without phenol red, supplemented with penicillin, streptomycin, L-glutamine and 10% fetal calf serum (GM10).
Test compounds were prepared as 2 mM solutions in dimethyl sulphoxide (DMSO). Four replicate, serial 2-fold dilutions in GM10 were then prepared and 50 microlitres amounts placed in 96-well plates over a final nanomolar concentration range of 625-1.22. Fifty microlitres GM10 and 3.5×10^4 infected cells were then added to each well. Control cultures containing no cells (blank), uninfected cells (100% viability; 4 replicates) and infected cells without compound (total virus-mediated cell death; 4 replicates) were also prepared. The cultures were then incubated at 37° C. in a humidified atmosphere of 5% CO2 in air for […].
A fresh solution of 5 mg/ml MTT was prepared in 0.01 M phosphate buffered saline, pH 7.2 and 20 microlitres added to each culture. The cultures were further incubated as before for 2 h. They were then mixed by pipetting up and down and 170 microlitres of Triton X-100 in acidified isopropanol (10% v/v Triton X-100 in 1:250 mixture of concentrated HCl in isopropanol). When the formazan deposit was fully solubilized by further mixing, the absorbance (OD) of the cultures was measured at 540 nm and 690 nm wavelength (690 nm readings were used as blanks for artefacts between wells). The percent protection for each treated culture was then calculated from the equation: [formula]
The IC50 was then obtained from graph plots of percent protection versus log10 drug concentration.

CCn1c(Cc2ccncc2)c(Sc2cc(Cl)cc(Cl)c2)n(C(C)C)c1=O
pIC50 (HIV-1 RT): 6.19

COc1cccc(Sc2c(CNCc3ccncc3)n(C)c(=O)n2C(C)C)c1
pIC50 (HIV-1 RT): 5.48

Cn1c(COCc2ccccc2)c(Sc2cc(Cl)cc(Cl)c2)n(-c2ccccc2)c1=O
pIC50 (HIV-1 RT): 5.00

CC(C)n1c(Oc2cc(Cl)cc(Cl)c2)c(CNCc2ccncc2)n(C)c1=O
pIC50 (HIV-1 RT): 5.62
pIC50 [1]: 6.97

CC(C)n1c(Sc2cc(Cl)cc(Cl)c2)c(COCc2cccnc2)n(C)c1=O
pIC50 (HIV-1 RT): 6.94
pIC50 [1]: 8.30

CC(C)n1c(Sc2cc(Cl)cc(Cl)c2)c(/C=C/C#N)n(C)c1=O
pIC50 (HIV-1 RT): 5.72

CC(C)n1c(Sc2cc(Cl)cc(Cl)c2)c(Cc2ccncc2)n(C)c1=O
pIC50 (HIV-1 RT): 6.50
pIC50 [1]: 8.15

CC(C)n1c(Sc2ccccc2)c(CNCc2ccccc2)n(C)c1=O
pIC50 (HIV-1 RT): 6.14
pIC50 [1]: 7.36

CC(C)n1c(Sc2cc(Cl)cc(Cl)c2)c(CCc2ccccc2)n(C)c1=O
pIC50 (HIV-1 RT): 5.94

CC(C)n1c(Sc2ccccc2)c(CNCc2ccncc2)n(C)c1=O
pIC50 (HIV-1 RT): 6.28
pIC50 [1]: 7.49

CC(C)n1c(Sc2cc(Cl)cc(Cl)c2)c(COc2ccncc2)n(C)c1=O
pIC50 (HIV-1 RT): 6.22
pIC50 [1]: 6.87

CC(C)n1c(Sc2cc(Cl)cc(Cl)c2)c(CO)n(C)c1=O
pIC50 (HIV-1 RT): 5.00

CC(C)n1c(Sc2cc(Cl)cc(Cl)c2)c(CNCc2ccncc2)n(C)c1=O
pIC50 (HIV-1 RT): 7.05
pIC50 [1]: 8.15

CC(C)n1c(Sc2cc(Cl)cc(Cl)c2)c(COCc2ccncc2)n(C)c1=O
pIC50 (HIV-1 RT): 6.77
pIC50 [1]: 8.40

CCC(C)Sc1c(CNCc2ccncc2)n(C)c(=O)n1C(C)C (centres unmarked)
pIC50 (HIV-1 RT): 5.72
